Values of other authors as cited in patent publication US10100341B2, “Tailored oils produced from recombinant oleaginous microorganisms” (Corbion Biotech, Inc., priority 2011, dated 2018).

How the values were obtained:
[1] = test system: Chlamydomonas reinhardtii; conditions: 90 ug/ml spectinomycin; cited from earlier work
[2] = test system: Rhodococcus opacus; conditions: 1 mg/ml thiostrepton; cited from earlier work

| SMILES | propagation of untransformed cells in medium comprising the agent [1] | propagation of untransformed cells in medium comprising the agent [2] |
| --- | --- | --- |
| CN[C@@H]1[C@H](O)[C@H](NC)[C@H]2O[C@@]3(O)C(=O)C[C@@H](C)O[C@H]3O[C@@H]2[C@H]1O [spectinomycin] | unable to propagate | – |
| C=C(NC(=O)C(=C)NC(=O)c1csc(C2=N[C@@H]3c4csc(n4)[C@H]4NC(=O)c5csc(n5)[C@H]([C@](C)(O)[C@@H](C)O)NC(=O)[C@H]5CSC(=N5)/C(=C/C)NC(=O)[C@H]([C@@H](C)O)NC(=O)c5csc(n5)[C@]3(CC2)NC(=O)[C@H](C)NC(=O)C(=C)NC(=O)[C@H](C)NC(=O)[C@H]([C@@H](C)CC)N[C@@H]2C=Cc3c([C@H](C)O)cc(nc3[C@H]2O)C(=O)O[C@@H]4C)n1)C(N)=O [thiostrepton] | – | unable to propagate |
